Like-named read-outs stand apart in the source and are kept apart here.
Key:
[1] = test system: Ear Edema Caused by Arachidonic Acid; assay: Suppressing effect on ear edema caused by arachidonic acid; type: in vivo, ICR male mice; settings: Mus musculus, 1 h, thickness after one hour, read-out: Suppression rate (ear edema); for inhibition in vivo at 50 mg/kg: oral administration, one hour before inflammatory agent (2 mg arachidonic acid); for inhibition in vivo at 0.1 mg: topical, local application, 0.1 mg/auricle, 30 min before inflammatory agent (2 mg arachidonic acid)
Procedure: The thickness of auricles of ICR male mice of 6 week-age was measured by using a micrometer. On both sides of one of the auricles of each mouse, was applied 2 mg of arachidonic acid dissolved in acetone as the inflammatory agent to cause inflammation thereon. The thickness of the auricle after one hour of the application was measured and the difference between the thickness obtained and the thickness before the application was taken as the value of ear edema. The compound according to the present invention dissolved in ethanol or only ethanol as a control were orally administrated or applied localy. In the case of oral administration, 50 mg/kg of the compound according to the present invention was administrated one hour before the application of the inflammatory agent, and 0.1 mg/auricle was applied 30 min before the application in the case of local application.
The suppression rate of ear edema of the compound according to the present invention was calculated based on the ratio of the suppression to the value of ear edema in the control group and the results are shown in Tables 6 and 7 (Compound numbers in Tables 6 and 7 correspond to the Compound numbers in Table 1).
Further, benoxaprofen and NDGA were used as the comparison.

[2] = literature; cited from earlier work
lipoxygenase = target: T1, lipoxygenase (Rattus norvegicus, UniProt P12527); assay: Inhibition activity to lipoxygenase (leukotriene production by rat abdominal cells, bioassay on guinea pig ileum); type: cell-based, Wister rat; settings: read-out: Inhibition intensity; for inhibition at 1 µM: 10^-6 M (final concentration)
T1 construct: abdominal cells of Wister rat (7 to 12 week-age); endogenous in cells; host or cells: abdominal (peritoneal) cells of Wister [Wistar] rat
T1 sequence (P12527 1-673): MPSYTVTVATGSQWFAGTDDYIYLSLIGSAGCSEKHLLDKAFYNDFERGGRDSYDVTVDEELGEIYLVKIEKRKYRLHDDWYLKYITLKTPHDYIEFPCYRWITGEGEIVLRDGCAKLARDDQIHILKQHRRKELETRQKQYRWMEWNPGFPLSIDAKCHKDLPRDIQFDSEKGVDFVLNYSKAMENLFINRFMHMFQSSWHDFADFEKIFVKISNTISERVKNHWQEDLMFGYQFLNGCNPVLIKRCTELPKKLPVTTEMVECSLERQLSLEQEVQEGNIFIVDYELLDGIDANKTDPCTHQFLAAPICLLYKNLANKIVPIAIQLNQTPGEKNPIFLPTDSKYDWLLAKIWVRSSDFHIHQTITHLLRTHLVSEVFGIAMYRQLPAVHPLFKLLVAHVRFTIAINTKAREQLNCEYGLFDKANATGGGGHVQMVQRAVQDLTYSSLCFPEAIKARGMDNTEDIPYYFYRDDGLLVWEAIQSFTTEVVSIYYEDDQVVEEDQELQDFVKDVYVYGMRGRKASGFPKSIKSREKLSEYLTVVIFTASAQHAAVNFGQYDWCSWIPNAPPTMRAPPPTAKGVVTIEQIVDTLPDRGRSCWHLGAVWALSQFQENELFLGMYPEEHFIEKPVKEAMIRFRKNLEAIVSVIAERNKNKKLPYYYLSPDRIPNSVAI
Procedure: In 0.9 ml of Hunks' solution, were suspended 2×10^6 of abdominal cells of Wister rat (7 to 12 week-age) and incubated at 37° C. for 15 min after adding 10^-7 M of arachidonic acid and the compound of the present invention dissolved in ethanol, or only 10^-7 M of arachidonic acid and ethanol as a control. Further, 100 μl of 5 μg/μl of calcium inonophore A-23187 was added and the incubation was further continued at 37° C. for 15 min to produce leukotrienes. After cooling the reaction mixture with ice for 20 min to terminate the reaction, the reaction mixture was subjected to centrifugation at 4° C. for 10 min at 3000 rpm. The inhibition activity to lipoxygenase of the compound according to the present invention was measured by bioassay of leukotrienes contained in the resultant supernatants by using a Magunus' device while taking the contraction reaction of ileum extirpated from guinea pig as the indication. The inhibition rate of the compound according to the present invention was calculated based on the ratio of the suppression due to the compound with respect to the extent of the contraction reaction in the control group, and the intensity of inhibition based thereon is shown in the following Tables 4 and 5 (Compound numbers in Tables 4 and 5 correspond to the Compound numbers in Table 1).

[3] = set-up: species or system ICR male mice; settings: mouse, in vivo, po, 2000 mg/kg
Procedure: The compounds according to the present invention (Compound No. 44 in Table 1) suspended in an aqueous 1% tragacanth solution was orally administrated by 2000 mg/kg to 6 week-age ICR male mice.

[4] = 10^-5 M (final concentration), rat abdominal cells, calcium ionophore A-23187
[5] = rat abdominal cells, calcium ionophore A-23187

CC(C(=O)O)c1ccc2oc(-c3ccc(Cl)cc3)nc2c1 (centres unmarked) [Benoxaprofen, benoxaprofen]
inhibition in vivo at 50 mg/kg [1]: 15.3%
adverse effect [2]: grave adverse effect
effect on psoriasis [2]: effective to psoriasis

c1ccc(OCCCOc2ccc(Cc3nc4ccccc4s3)cc2)cc1 [Compound 1, 2-[4-(3-phenoxy)propoxybenzyl]benzothiazole]
inhibition at 10 µM (lipoxygenase; [4]): 80 to 100%
inhibition at 1 µM (lipoxygenase; [5]): 20 to 50%

c1ccc(OCCCOc2ccc(Cc3nc4ccccc4o3)cc2)cc1 [Compound 2, 2-[4-(3-phenoxy)propoxybenzyl]benzoxazole]
inhibition at 10 µM (lipoxygenase; [4]): 80 to 100%
inhibition at 1 µM (lipoxygenase; [5]): 20 to 50%

c1ccc(OCCCCCCOc2ccc(Cc3nc4ccccc4o3)cc2)cc1 [Compound 5]
inhibition at 10 µM (lipoxygenase; [4]): 80 to 100%
inhibition at 1 µM (lipoxygenase; [5]): 20 to 50%

Clc1cc(OCCCCOc2ccccc2)ccc1Cc1nc2ccccc2o1 [Compound 6]
inhibition in vivo at 0.1 mg [1]: 48.5%
inhibition at 10 µM (lipoxygenase; [4]): 80 to 100%

Clc1ccccc1OCCCCOc1ccc(Cc2nc3ccccc3o2)cc1 [Compound 7]
inhibition at 10 µM (lipoxygenase; [4]): 50 to 80%
inhibition at 1 µM (lipoxygenase; [5]): 20 to 50%

Cc1ccccc1OCCCCOc1ccc(Cc2nc3ccccc3o2)cc1 [Compound 10]
inhibition at 10 µM (lipoxygenase; [4]): 50 to 80%
inhibition at 1 µM (lipoxygenase; [5]): 20 to 50%

Fc1ccc(OCCCCOc2ccc(Cc3nc4ccccc4o3)cc2)cc1 [Compound 15]
inhibition at 10 µM (lipoxygenase; [4]): 50 to 80%
inhibition at 1 µM (lipoxygenase; [5]): 20 to 50%

c1ccc(COCCCOc2ccc(Cc3nc4ccccc4o3)cc2)cc1 [Compound 19]
inhibition at 10 µM (lipoxygenase; [4]): 80 to 100%
inhibition at 1 µM (lipoxygenase; [5]): 50 to 80%

COCCCCOc1ccc(Cc2nc3ccccc3o2)cc1 [Compound 25]
inhibition at 10 µM (lipoxygenase; [4]): 50 to 80%
inhibition at 1 µM (lipoxygenase; [5]): 20 to 50%

C(#Cc1ccccc1)CCCOc1ccc(Cc2nc3ccccc3o2)cc1 [Compound 29]
inhibition at 10 µM (lipoxygenase; [4]): 80 to 100%
inhibition at 1 µM (lipoxygenase; [5]): 20 to 50%

CC#CCOc1ccc(Cc2nc3ccccc3o2)c(Cl)c1 [Compound 34]
inhibition in vivo at 0.1 mg [1]: 42.9%
inhibition at 10 µM (lipoxygenase; [4]): 50 to 80%

CCCC#CCOc1ccc(Cc2nc3ccccc3o2)cc1 [Compound 37]
inhibition in vivo at 0.1 mg [1]: 42.1%
inhibition at 10 µM (lipoxygenase; [4]): 80 to 100%
inhibition at 1 µM (lipoxygenase; [5]): 20 to 50%

Clc1cc(Cc2nc3ccccc3o2)ccc1OCCCCOc1ccccc1 [Compound 44]
inhibition in vivo at 50 mg/kg [1]: 80.7%
inhibition at 10 µM (lipoxygenase; [4]): 80 to 100%
inhibition at 1 µM (lipoxygenase; [5]): 50 to 80%
Anatomic inspection [3]: no abnormality was observed
Condition and body weight [3]: no change was recognized at all

Clc1cc(Cc2nc3ccccc3o2)ccc1OCCCC#Cc1ccccc1 [Compound 47]
inhibition at 10 µM (lipoxygenase; [4]): 80 to 100%

COCCCCOc1ccc(Cc2nc3ccccc3o2)cc1Cl [Compound 51]
inhibition at 10 µM (lipoxygenase; [4]): 80 to 100%
inhibition at 1 µM (lipoxygenase; [5]): 50 to 80%

OCC#CCCCC#CCCCOc1ccc(Cc2nc3ccccc3o2)cc1Cl [Compound 57]
inhibition in vivo at 0.1 mg [1]: 49.8%
inhibition at 10 µM (lipoxygenase; [4]): 80 to 100%

Clc1ccc(OCCCCOc2ccc(Cc3nc4ccccc4o3)cc2Cl)cc1 [Compound 62]
inhibition in vivo at 0.1 mg [1]: 32.9%
inhibition at 10 µM (lipoxygenase; [4]): 50 to 80%
inhibition at 1 µM (lipoxygenase; [5]): 20 to 50%

CCCCOc1cccc(Cc2nc3ccccc3o2)c1 [Compound 71]
inhibition in vivo at 50 mg/kg [1]: 77.9%
inhibition at 10 µM (lipoxygenase; [4]): 80 to 100%

CC#CCOc1cccc(Cc2nc3ccccc3o2)c1 [Compound 73]
inhibition in vivo at 50 mg/kg [1]: 85.1%
inhibition at 10 µM (lipoxygenase; [4]): 80 to 100%
inhibition at 1 µM (lipoxygenase; [5]): 20 to 50%

C(#Cc1ccccc1)CCCOc1ccccc1Cc1nc2ccccc2o1 [Compound 89]
inhibition at 10 µM (lipoxygenase; [4]): 50 to 80%
inhibition at 1 µM (lipoxygenase; [5]): 20 to 50%

C(#CCOc1ccccc1Cc1nc2ccccc2o1)CCCC#Cc1ccccc1 [Compound 90]
inhibition at 10 µM (lipoxygenase; [4]): 80 to 100%
inhibition at 1 µM (lipoxygenase; [5]): 20 to 50%

CC#CCOc1ccccc1Cc1nc2ccccc2o1 [Compound 96]
inhibition in vivo at 50 mg/kg [1]: 71.8%
inhibition at 10 µM (lipoxygenase; [4]): 80 to 100%

C#CCCCC#CCOc1ccccc1Cc1nc2ccccc2o1 [Compound 98]
inhibition in vivo at 0.1 mg [1]: 50.2%
inhibition at 10 µM (lipoxygenase; [4]): 50 to 80%

CC#CCOc1cccc(Cl)c1Cc1nc2ccccc2o1 [Compound 100]
inhibition at 10 µM (lipoxygenase; [4]): 80 to 100%
inhibition at 1 µM (lipoxygenase; [5]): 50 to 80%

C#CCCCOc1ccc(Cl)cc1Cc1nc2ccccc2o1 [Compound 112]
inhibition at 10 µM (lipoxygenase; [4]): 50 to 80%
inhibition at 1 µM (lipoxygenase; [5]): 20 to 50%

C#CCCCOc1c(Cl)cccc1Cc1nc(-c2ccccc2)co1 [Compound 125]
inhibition in vivo at 0.1 mg [1]: 41.7%

CC#CCOc1cccc(Cc2nc(-c3ccccc3)co2)c1 [Compound 129]
inhibition at 10 µM (lipoxygenase; [4]): 50 to 80%

CC(Cc1ccc(O)c(O)c1)C(C)Cc1ccc(O)c(O)c1 (centres unmarked) [NDGA, Nordihydroguaiaretic acid, reference compound]
inhibition in vivo at 0.1 mg [1]: 18.2%
inhibition at 10 µM (lipoxygenase): 0 to 20%
